Experimental findings from ChEMBL document CHEMBL3507680, “University of Dundee, Gates Library screen for HepG2 cell viability” are described below.

The nature of this series: Human HepG2 cell viability assay in 384 well format. In kind it is toxicity, cell-based. On the set-up: dose 125 nL, time 70.5 hour; concentration not given beside the values. As to conditions: HepG2 cells, read-out: Inhibition.

In the case of `Cn1cc(Br)cc1C(=O)NC1(C#N)CC1`, the cytotoxicity at 70.5 h was 15.5%.
The figure for `Cc1ccccc1C1CN(c2cnn(C)c(=O)c2Cl)CCO1` (centres undefined) is -1.35%.
As to `Cc1cccc(CNC2(CCO)CCOCC2)c1C`, the cytotoxicity at 70.5 h was -2.52%.
`O=C(NC1CCCN(c2ccccc2F)C1)c1ccon1` (centres undefined): the cytotoxicity at 70.5 h is -9.69%.
The figure for `CC1CN(C(=O)c2cc(=O)[nH]c3ccc(F)cc23)CCO1` (centres undefined) is 19.1%; for `CSCCC(C)NC(=O)N(C)Cc1cc(Cl)cn1C` (centres undefined) it is -10.9%; for `Cc1cccc(C(=O)N2CCCN(CCc3scnc3C)CC2)c1` it is -10.5%.
Take `CCS(=O)(=O)CC(C)NC(=O)N(C)Cc1cc(Cl)cn1C` (centres undefined): the cytotoxicity at 70.5 h is -7.58%.
Turning to `CN(Cc1nccn1C)S(=O)(=O)Cc1cccc(C#N)c1`, the cytotoxicity at 70.5 h is -12.6%.
The figure for `CC(NCC1CCN(CCO)CC1)c1ccc(F)c(Cl)c1` (centres undefined) is 0.00897%; for `CCN(Cc1ccccc1)S(=O)(=O)C1CCS(=O)(=O)CC1` it is -10.9%.
As to `CC(=O)Nc1ccc(C(=O)N2CCSCC2c2ccc(C)o2)cc1` (centres undefined), the cytotoxicity at 70.5 h is -4.02%.
The figure for `Cc1ccc(C2CSCCN2C(=O)c2ccoc2C)o1` (centres undefined) is -8.94%.
The figure for `CN(C(=O)CCN1CCCC1=O)c1cc(C#N)c2ccccc2n1` is 4.42%.
For `N#Cc1ccc(F)c(CN2CCNC(=O)C2c2cccs2)c1` (centres undefined), the cytotoxicity at 70.5 h worked out at 18%.
Turning to `N#Cc1cccc(OCCN2CCNC(=O)C2c2cccs2)c1` (centres undefined), the cytotoxicity at 70.5 h was -6%.
As for `Cc1ccc(S(=O)(=O)N2CCN(C)c3ccncc32)cc1F`, the cytotoxicity at 70.5 h is -4.45%.
The figure for `CCOCCNC(=O)c1ccc(OC)cc1I` is -6.65%; for `CN(CC(=O)NC1CC1)C(=O)c1csc(Br)c1` it is -8.41%.
In the case of `CCOCC(=O)Nc1cccnc1-n1ccnc1C`, the cytotoxicity at 70.5 h is -6.13%.
In the case of `O=S(=O)(NC1CCCCC12OCCO2)c1ccc2c(c1)OCCO2` (centres undefined), the cytotoxicity at 70.5 h is -7.16%.
With `N#Cc1ccc(OCCN2CCNC(=O)C2c2cccs2)cc1` (centres undefined), the cytotoxicity at 70.5 h was -6.87%.
With `Cc1ccc(C2CSCCN2C(=O)c2cnsn2)o1` (centres undefined), the cytotoxicity at 70.5 h is -10.7%.
On to `Clc1ccc(Cc2nc(CNCCn3cccn3)cs2)cc1`, for which the cytotoxicity at 70.5 h is -1.63%.
The figure for `c1ccc(OCc2nc(CNCCn3cccn3)cs2)cc1` is 27%; for `COc1cccc(CNCc2cccnc2-n2cccn2)c1OC` it is 19.6%.
The figure for `CC(C)CCN1CCN(C(=O)c2ccc(=O)[nH]n2)CC1` is -7.24%.
On to `CC(C)c1nc(CNC2CCN(S(C)(=O)=O)CC2)cs1`, for which the cytotoxicity at 70.5 h is 20.3%.
The figure for `O=C1CCN(CCCS(=O)(=O)c2ccc(Cl)cc2)CCN1` is -4.67%; for `COc1ccccc1CN(CC1CCCO1)C(=O)c1cc(C)n[nH]1` (centres undefined) it is -14.4%.
In the case of `CC1CN(C)CCN1C(=O)Nc1nc(-c2ccc[nH]2)cs1` (centres undefined), the cytotoxicity at 70.5 h is -14.7%.
As for `OC(CN1CCN(CCOCC(F)(F)F)CC1)c1ccccc1` (centres undefined), the cytotoxicity at 70.5 h was determined as 24.5%.
`O=C(NCCc1nncn1C1CC1)c1cnn(Cc2ccccc2)c1`: the cytotoxicity at 70.5 h is -11.1%.
For `CC(C)c1ocnc1C(=O)N1CC(=O)Nc2cccnc21`, the cytotoxicity at 70.5 h was -1.78%.
Turning to `COCCN1CCC(Nc2ccc(C#N)cc2F)CC1`, the cytotoxicity at 70.5 h is -13.7%.
As to `O=C1CCN(C(=O)c2ncoc2-c2ccco2)c2ncccc2N1`, the cytotoxicity at 70.5 h was -9.5%.
For `CC(C)c1ocnc1C(=O)N1CCC(=O)Nc2cccnc21`, the cytotoxicity at 70.5 h is -13.9%.
Take `CC(C)(C)c1ccc(S(=O)(=O)CCN2CCNC(=O)CC2)cc1`: the cytotoxicity at 70.5 h is -10.4%.
Regarding `COC(C)C(=O)NS(=O)(=O)c1ccc(F)c(C(F)(F)F)c1` (centres undefined), the cytotoxicity at 70.5 h is -12.6%.
Regarding `CC(=O)NS(=O)(=O)c1ccc(F)c(C(F)(F)F)c1`, the cytotoxicity at 70.5 h is -6.35%.
The figure for `COc1cccc(NC(=O)NC2(c3noc(CN(C)C)n3)CCCC2)c1` is -10.2%; for `CN(C)Cc1nc(C2(NC(=O)Nc3cccc(F)c3)CCCC2)no1` it is -2.26%.
On to `CN(C)Cc1nc(C2(NC(=O)Nc3ccccc3)CCCC2)no1`, for which the cytotoxicity at 70.5 h was -12.8%.
For the compound `Cc1cccc(C(=O)N2CCN(CCC(C)C)CC2)n1`, the cytotoxicity at 70.5 h was -11.4%.
The figure for `CCN(Cc1ccoc1)C(=O)NC1CCN(C(=O)OC(C)(C)C)C1` (centres undefined) is -2.35%; for `Cc1cccc(CN(Cc2ccccn2)S(=O)(=O)N(C)C(C)C)c1` it is -14%.
For the compound `COc1cccc(CNc2cccnc2-n2cccn2)c1OC`, the cytotoxicity at 70.5 h is -14.7%.
As for `Cc1ccc(C)c(CN2CCOC(c3noc(C)n3)C2)c1` (centres undefined), the cytotoxicity at 70.5 h is -4.49%.
As for `CCN(Cc1ccoc1)C(=O)C1CN(C(=O)OC(C)(C)C)C1`, the cytotoxicity at 70.5 h is -13.5%.
The figure for `COc1ccccc1CN(CC1CCCO1)C(=O)c1ccc(F)cn1` (centres undefined) is -9.98%.
For `CC(CNC1CCN(Cc2ccncc2)CC1)c1ccc(F)cc1F` (centres undefined), the cytotoxicity at 70.5 h is -11%.
As to `COc1cccc(COc2nc(C(C)C)no2)c1`, the cytotoxicity at 70.5 h amounted to 15.2%.
On to `NS(=O)(=O)c1ccc(CNCC(=O)NCc2ccc(Cl)cc2Cl)cc1`, for which the cytotoxicity at 70.5 h is -8.64%.
Consider `O=S(=O)(NCc1ccc(S(=O)(=O)N2CCCC2)s1)c1cc(Cl)cc(Cl)c1`, for which the cytotoxicity at 70.5 h is -21.3%.
Consider `CN(CCN1CCOC1=O)CC(=O)Nc1cc(F)cc(F)c1`, for which the cytotoxicity at 70.5 h is -19.7%.
`O=C(NCCCc1nc(=O)[nH][nH]1)Nc1cccc(F)c1`: the cytotoxicity at 70.5 h is -1.96%.
Regarding `O=C(NCCCc1nc(=O)[nH][nH]1)Nc1ccc(Cl)cc1`, the cytotoxicity at 70.5 h was -13.5%.
Consider `CCn1c(CN(C)Cc2csc(C)n2)nc2cc(F)ccc21`, for which the cytotoxicity at 70.5 h was -20.1%.
With `CC(C)C(CNCc1cccc2c1OCO2)N1CCOCC1` (centres undefined), the cytotoxicity at 70.5 h is 3.33%.
On to `Cc1csc(CCCNc2ccc(S(N)(=O)=O)cc2C#N)n1`, for which the cytotoxicity at 70.5 h is -22.6%.
On to `CCC(C(=O)Nc1ccc2nc(C)oc2c1)N1CCCC1=O` (centres undefined), for which the cytotoxicity at 70.5 h is 20.5%.
The figure for `Cc1ccc(SC2CCCC2)c(C(=O)NCCc2n[nH]c(=O)[nH]2)c1` is 2.84%.
For `Cc1nn(C)c(Cl)c1CN1CCN(c2nccs2)C(C)C1` (centres undefined), the cytotoxicity at 70.5 h was 2.61%.
The figure for `O=S(=O)(Cc1c(F)cccc1F)NCCOc1cccnc1` is 17.9%; for `COc1ccc(C)cc1CN(C)CCCNS(C)(=O)=O` it is 7.17%; for `Cn1c(CCN2CCN(CCc3ccccc3)CC2)nc2ccccc21` it is -6.23%.
Take `CN(CCCNc1cc(N2CCCC2CO)ncn1)S(C)(=O)=O` (centres undefined): the cytotoxicity at 70.5 h is 11.1%.
For the compound `Cc1ccc(NC(C)C(=O)NCc2cccs2)cc1C` (centres undefined), the cytotoxicity at 70.5 h came out at 18%.
In the case of `CS(=O)(=O)Cc1cccc(C(=O)NCC2Cc3ccccc3O2)c1` (centres undefined), the cytotoxicity at 70.5 h was -3.94%.
As for `O=C(Nc1nccs1)N1CCCC(N2CCNC2=O)C1` (centres undefined), the cytotoxicity at 70.5 h was 1.93%.
On to `CC(C)(C)NC(=O)C1CSCN1S(=O)(=O)c1cccc(F)c1` (centres undefined), for which the cytotoxicity at 70.5 h is -9.43%.
The figure for `CC(NC(=O)CCCOc1ccccc1Cl)c1ccncc1` (centres undefined) is 13.5%; for `CN(C)C(=O)C1CCCN1CCCNC(=O)c1ccccc1F` (centres undefined) it is -1.14%.
`COc1ccccc1CC(=O)NCCCN1CCCC1C(=O)N(C)C` (centres undefined): the cytotoxicity at 70.5 h worked out at 2.29%.
